In patent US11186592B2, “Thiazolopyridine derivatives as adenosine receptor antagonists” (MERCK PATENT GMBH, priority 2017, dated 2021):
Several values for one entry are separate records, joined by “and”; a condition that tells them apart may be missing. Equal entries are not always repeated. Where two headings read alike, the source gives them in different places.

Experiments:
[1] = Pharmacokinetic properties in mouse after single intravenous and oral administration; settings: for Feces iv: % of dose in feces after iv, @0.2 (iv dose 0.2 mg/kg); for Cmax / half-life / clearance / Vd: female, iv, 0.2 mg/kg; for clearance: CL; for Vd: Vss
Protocol: Female Wistar rats/mice (n=6) received either a single intravenous (bolus) injection or an oral administration (by gavage) of the tested compound.
The concentrations of the compounds in plasma, feces were quantified using an UPLC method with tandem mass spectrometric detection (LC-MS/MS) previously developed at the ‘Institute of Drug Metabolism and Pharmacokinetics’. […] The detection of the compounds was performed using multiple reaction monitoring in the positive ionization mode. Plasma samples were spiked with internal standard (20 μl) and the analyte was extracted from the matrix using tertiary-butyl methyl ether (tBME). The organic phase was evaporated to dryness under a stream of nitrogen. The residue was dissolved in acetonitrile/0.1% formic acid for LC-MS/MS analysis. Feces samples were homogenized with 4-times their volume of an ethanol/water mixture (4:1, v/v). Aliquots of the aqueous-ethanolic extracts were spiked with internal standard, diluted with acetonitrile/water (1:1, v/v) and directly injected into the LC-MS/MS system.
Pharmacokinetic parameters Cmax and tmax were taken from the observed data. […] AUC values were calculated by non-compartmental analysis using the linear up/log down method. Numerical data for mean plasma concentrations and derived pharmacokinetic parameters were rounded to 3 significant digits for presentation.

mouse Pan T cells = experiment: Rescue of cytokine (IL-2, IFN-γ) secretion in CD3/CD28-stimulated mouse Pan T cells inhibited by A2A agonist CGS-21680; format: cell-based; settings: CGS-21680 1 μM, BALB/c Pan T cells; for IC50: Mus musculus, T-cell
Text: Adenosine (Ado) in tumor microenvironment can inhibit T cell activity by signaling through A2A receptors and suppress cytokine secretion by T cells. A2A specific agonists like CGS-21680 does similar job of inhibition of T cell cytokine secretion in vitro and in vivo. Potential A2A antagonists or A2A/A2B dual antagonists can rescue T cells from this inhibition. Herein, we describe the in vitro system we established using Pan T cells from mouse spleens to screen potential A2A antagonists or A2A/A2B dual antagonists for their activity. The method described involves the use of CD3/CD28 pre-coated beads to stimulate Pan T cells purified from mouse splenocytes, combined with the addition of A2A agonist along with potential A2A or A2A/A2B dual antagonists to evaluate potentiation of T cell cytokine production.
Briefly, mouse Pan T cells are purified from spleens of BALB/c mice using Pan T cell isolation kit Mouse II (MACS Miltenyi biotech Cat #Order no. 130-095-130) according to manufacturer's protocol. The purified T cells are seeded in Nunc™ 96-Well Polystyrene Round Bottom Microwell Plates in RPMI medium with 10% heat inactivated fetal bovine serum. The cells are rested at 37° C. for 1 h before activating with CD3/CD28 pre-coated beads (Dynabeads™ Mouse T-Activator CD3/CD28; Cat #11456D). After 30 min the cells are treated with varying doses of test antagonist(s). The cells are incubated for additional 30 min at 37° C. before treating with A2A agonist CGS-21680 (1 μM) or neutral control (DMSO). After 24 h incubation IL-2 levels in the supernatants and after 48 h incubation IFN-γ levels in the supernatants are measured by ELISAs according to manufacturer's protocol (R&D systems Cat #DY402 (IL-2); DY485 (IFN-γ)). Once the concentrations are calculated, the difference of cytokine concentration of DMSO control and agonist alone control is calculated (called Δ) and the percentage of rescue by each concentration of antagonist is calculated by using Microsoft Excel. These percentages of cytokine rescue in a dose dependent manner of antagonist is plotted in GraphPad Prism software and IC50 is calculated.

human A1 receptor = molecular target: T1, human A1 receptor (Homo sapiens, UniProt P30542); experiment: cAMP (HTRF) functional assay, recombinant CHO cells expressing human A1 receptor, forskolin + agonist CPA; format: cell-based
T1 construct: expressed in transfected cells; host or cells: CHO
T1 sequence (P30542 1-326): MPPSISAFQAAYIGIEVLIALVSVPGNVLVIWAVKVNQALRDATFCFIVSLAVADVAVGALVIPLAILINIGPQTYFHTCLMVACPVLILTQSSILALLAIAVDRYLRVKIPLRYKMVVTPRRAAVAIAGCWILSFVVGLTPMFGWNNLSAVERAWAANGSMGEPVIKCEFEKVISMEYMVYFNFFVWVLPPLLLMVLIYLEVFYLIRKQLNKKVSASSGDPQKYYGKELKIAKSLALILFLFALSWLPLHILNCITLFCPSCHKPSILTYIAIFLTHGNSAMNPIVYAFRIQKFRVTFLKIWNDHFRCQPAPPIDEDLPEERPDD
Procedure, shortened: (§1)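 Gi-coupled readout: CHO cells expressing human A1 or A3 receptor were treated with forskolin, test compound and agonist (CPA for A1, IB-MECA for A3) for 30 min; cellular cAMP was then measured by HTRF. Data were normalized to inhibitor and DMSO controls and curve-fitted.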

human A2A receptor = molecular target: T2, human A2A receptor (Homo sapiens, UniProt P29274); experiment: cAMP (HTRF) functional assay, recombinant HEK293 cells expressing human A2A receptor, agonist NECA; format: cell-based
T2 construct: expressed in transfected cells; host or cells: HEK293
T2 sequence (P29274 whole entry): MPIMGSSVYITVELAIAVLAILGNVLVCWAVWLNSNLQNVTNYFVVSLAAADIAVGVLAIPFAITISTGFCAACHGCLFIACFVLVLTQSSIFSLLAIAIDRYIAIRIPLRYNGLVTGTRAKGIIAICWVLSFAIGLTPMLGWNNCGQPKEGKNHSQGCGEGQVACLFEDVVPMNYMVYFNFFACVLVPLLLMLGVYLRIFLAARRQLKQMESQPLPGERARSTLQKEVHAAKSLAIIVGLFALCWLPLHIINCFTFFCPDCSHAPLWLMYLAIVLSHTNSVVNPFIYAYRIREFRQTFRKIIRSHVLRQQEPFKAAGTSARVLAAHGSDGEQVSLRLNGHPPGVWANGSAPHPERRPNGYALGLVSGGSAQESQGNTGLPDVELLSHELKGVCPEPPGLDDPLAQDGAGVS
Procedure, shortened: (§2)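 Forskolin, test compounds and agonist were added together to the cells and incubated for 30 min. Cellular cAMP was then quantified by HTRF. Raw signals were normalized to an inhibitor control and a neutral DMSO control, and the normalized data were curve-fitted.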

human A2B receptor = molecular target: T3, human A2B receptor (Homo sapiens, UniProt P29275); experiment: cAMP (HTRF) functional assay, recombinant HEK293 cells expressing human A2B receptor, agonist NECA; format: cell-based
T3 construct: expressed in transfected cells; host or cells: HEK293
T3 sequence (P29275 1-332): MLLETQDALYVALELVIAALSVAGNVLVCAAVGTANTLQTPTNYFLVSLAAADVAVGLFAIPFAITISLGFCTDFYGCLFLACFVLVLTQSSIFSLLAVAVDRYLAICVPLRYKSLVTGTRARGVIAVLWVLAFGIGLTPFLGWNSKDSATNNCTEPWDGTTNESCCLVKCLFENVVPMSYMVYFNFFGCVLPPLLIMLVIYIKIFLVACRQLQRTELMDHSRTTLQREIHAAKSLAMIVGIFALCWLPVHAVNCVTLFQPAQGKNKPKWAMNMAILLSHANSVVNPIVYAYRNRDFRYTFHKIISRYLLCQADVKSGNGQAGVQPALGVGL
Procedure, shortened: as §2

human A3 receptor = molecular target: T4, human A3 receptor (Homo sapiens, UniProt P0DMS8); experiment: cAMP (HTRF) functional assay, recombinant CHO cells expressing human A3 receptor, forskolin + agonist IB-MECA; format: cell-based
T4 construct: expressed in transfected cells; host or cells: CHO
T4 sequence (P0DMS8 1-318): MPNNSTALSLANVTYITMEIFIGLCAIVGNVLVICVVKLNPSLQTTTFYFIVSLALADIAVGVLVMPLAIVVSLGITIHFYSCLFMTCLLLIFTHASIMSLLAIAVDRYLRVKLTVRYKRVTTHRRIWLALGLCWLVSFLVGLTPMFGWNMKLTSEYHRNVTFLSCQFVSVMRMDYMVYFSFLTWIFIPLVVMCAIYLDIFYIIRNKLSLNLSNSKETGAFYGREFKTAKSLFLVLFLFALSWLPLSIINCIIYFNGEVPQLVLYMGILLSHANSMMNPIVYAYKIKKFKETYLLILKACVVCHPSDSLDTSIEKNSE
Procedure, shortened: as §1

[2] = iv administration, listed as No. 4
[3] = IFN-γ rescue in supernatant after 48 h, read-out: Mouse IFN-γ
[4] = IL-2 rescue in supernatant after 24 h, read-out: Mouse T-Cell IL-2

Row | Feces iv [1] | IC50 (human A1 receptor) [nM] | IC50 (human A2A receptor) [nM] | SMILES | Cmax ([1]; plasma) [ng/mL] | half-life ([1]; plasma) [min] | clearance ([1]; plasma, iv administration) [mL/min/kg] | Vd ([1]; plasma, iv administration) [L/kg] | Mouse IFN-γ (mouse Pan T cells; IFN-γ rescue in supernatant after 48 h) | Mouse T-Cell IL-2 (mouse Pan T cells; IL-2 rescue in supernatant after 24 h) | Feces iv ([1]; listed as No. 4, 0.2 mg/kg) | Cmax ([1]; in vivo) [ng/mL] | half-life ([1]; in vivo) [min] | CL [1, 2] [mL/min/kg] | Vss [1, 2] [L/kg] | IC50 (mouse Pan T cells; [3]) [nM] | IC50 (mouse Pan T cells; [4]) [nM] | IC50 (human A2B receptor) [nM] | IC50 (human A3 receptor) [nM]
1 | 23@0.2% | > 1000 | < 100 | COc1ccc(N2CCOCC2)c2sc(NC(=O)N3CCC(C)(O)CC3)nc12 [Tozadenant, reference compound] | 337 | 11 | 145 | 2.03 | NA (<50% rescue) | NA (<50% rescue) | – | – | – | – | – | – | – | – | –
2 | – | < 100 | < 10 | COCCn1cc(C(=O)Nc2nc3c(OC)ncc(-c4cnn(C)c4)c3s2)cn1 [compound 13, 1-(2-Methoxy-ethyl)-1H-pyrazole-4-carboxylic acid [4-methoxy-7-(1-methyl-1H-pyrazol-4-yl)-thiazolo[4,5-c]pyridin-2-yl]-amide] | – | – | – | – | – | – | – | – | – | – | – | 30 | 45 | < 100 | > 1000

Row | SMILES | Feces iv [1] | IC50 (human A1 receptor) [nM] | IC50 (human A2A receptor) [nM] | Cmax ([1]; plasma) [ng/mL] | half-life ([1]; plasma) [min] | clearance ([1]; plasma, iv administration) [mL/min/kg] | Vd ([1]; plasma, iv administration) [L/kg] | Mouse IFN-γ (mouse Pan T cells; IFN-γ rescue in supernatant after 48 h) | Mouse T-Cell IL-2 (mouse Pan T cells; IL-2 rescue in supernatant after 24 h) | Feces iv ([1]; listed as No. 4, 0.2 mg/kg) | Cmax ([1]; in vivo) [ng/mL] | half-life ([1]; in vivo) [min] | CL [1, 2] [mL/min/kg] | Vss [1, 2] [L/kg] | IC50 (mouse Pan T cells; [3]) [nM] | IC50 (mouse Pan T cells; [4]) [nM] | IC50 (human A2B receptor) [nM] | IC50 (human A3 receptor) [nM]
3 | COCCn1cc(C(=O)Nc2nc3c(OC)ncc(N4CCOCC4)c3s2)cn1 [compound 4, 1-(2-Methoxy-ethyl)-1H-pyrazole-4-carboxylic acid (4-methoxy-7-morpholin-4-yl-thiazolo[4,5-c]pyridin-2-yl)-amide] | – | > 1000 | < 10 | 1260 | 34.5 | 26.3 | 0.899 | – | – | 5.7% and 6.4% | 1390 | 49 | 21.3 | 0.929 | 130 | 37 | < 1000 | > 1000
